Test results: ChEMBL document CHEMBL1156102, “Identification of iminooxothiazolidines as secreted frizzled related protein-1 inhibitors” (Bioorg Med Chem Lett, 2009)
Active and inactive are the calls of the source. The calls are words filed in the database; no cut-off is given here.

Key:
[1] = target: T1, Secreted frizzled-related protein 1 (Homo sapiens) (UniProt Q8N474); assay: Inhibition of human SFRP1 transfected in human U20S cells at 15 uM by TCF-luciferase reporter gene assay relative to control; format: cell-based; settings: U2OS
T1 sequence (whole entry): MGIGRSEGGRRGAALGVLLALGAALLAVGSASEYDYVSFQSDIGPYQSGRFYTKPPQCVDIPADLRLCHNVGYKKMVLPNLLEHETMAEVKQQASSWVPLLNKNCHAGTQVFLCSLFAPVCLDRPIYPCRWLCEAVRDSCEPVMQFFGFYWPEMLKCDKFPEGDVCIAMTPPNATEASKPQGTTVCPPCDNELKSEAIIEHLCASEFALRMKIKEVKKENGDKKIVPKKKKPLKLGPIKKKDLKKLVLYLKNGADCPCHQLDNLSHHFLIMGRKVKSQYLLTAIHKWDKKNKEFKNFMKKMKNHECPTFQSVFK

[2] = target: T1, Secreted frizzled-related protein 1 (Homo sapiens); assay: Inhibition of human SFRP1 transfected in human U20S cells at 30 uM by TCF-luciferase reporter gene assay relative to control; format: cell-based; settings: U2OS
[3] = target: Secreted frizzled-related protein 1 (Homo sapiens) (UniProt Q8N474); assay: Inhibition of human SFRP1
[4] = target: T2, Secreted frizzled-related protein 1 (Homo sapiens, UniProt Q8N474); assay: Binding affinity to human SFRP1 by fluorescence spectroscopy
T2 sequence (Q8N474 whole entry): T1 sequence (whole entry)

[5] = target: T2, Secreted frizzled-related protein 1; assay: Inhibition of human SFRP1 transfected in human U20S cells by TCF-luciferase reporter gene assay; format: cell-based, U2OS
[6] = target: Proto-oncogene Wnt-3 (Homo sapiens) (UniProt P56703); assay: Binding affinity to Wnt3
Mus musculus [7] = species: Mus musculus; assay: Ex vivo osteogenic activity in mouse calvaria assessed in increase in total bone area at 15 uM; format: functional
Mus musculus [8] = species: Mus musculus; assay: Ex vivo osteogenic activity in mouse calvaria assessed in increase in osteoblasts number at 15 uM; format: functional

Chain of Proto-oncogene Wnt-3 (Homo sapiens) (P56703 whole entry): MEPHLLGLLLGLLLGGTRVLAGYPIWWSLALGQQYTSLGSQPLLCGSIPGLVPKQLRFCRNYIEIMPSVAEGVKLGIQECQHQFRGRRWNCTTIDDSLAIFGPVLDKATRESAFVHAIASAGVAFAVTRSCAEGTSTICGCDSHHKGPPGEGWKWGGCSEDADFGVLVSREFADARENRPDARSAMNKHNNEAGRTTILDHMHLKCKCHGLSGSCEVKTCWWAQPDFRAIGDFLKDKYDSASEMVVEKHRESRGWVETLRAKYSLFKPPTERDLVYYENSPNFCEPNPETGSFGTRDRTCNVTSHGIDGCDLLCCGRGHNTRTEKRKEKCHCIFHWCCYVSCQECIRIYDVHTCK

Structure (SMILES)	fold change (FC) [1]	further results
CCOC(=O)c1c(NC(=O)CC2SC(=N)NC2=O)sc2c1CCC2 (stereo unspecified)	1.5	
CCOC(=O)c1c(NC(=O)CC2SC(=N)NC2=O)sc(Br)c1CNc1ccccc1 (stereo unspecified)	2.5	
CCOC(=O)c1c(C)csc1NC(=O)CC1SC(=N)NC1=O (stereo unspecified)	2	
CCOC(=O)c1cc(CC)sc1NC(=O)CC1SC(=N)NC1=O (stereo unspecified)	1.7	
COC(=O)c1cc(-c2ccccc2)sc1NC(=O)CC1SC(=N)NC1=O (stereo unspecified)	0.9	
CCOC(=O)c1c(NC(=O)CC2S/C(=N/C)NC2=O)sc(C)c1C (stereo unspecified)	1.2	
CCOC(=O)c1c(NC(=O)CC2S/C(=N/C)N(C)C2=O)sc(C)c1C (stereo unspecified)	1.2	
N=C1NC(=O)C(CC(=O)Nc2cccc(Cl)c2Cl)S1 (stereo unspecified)		fold change (FC) [2]: 1
CCOC(=O)c1c(NC(=O)CC2SC(=N)NC2=O)sc2c1CCCCC2 (stereo unspecified)	1.9	
N#Cc1c(NC(=O)CC2SC(=N)NC2=O)sc2c1CCCC2 (stereo unspecified)	1.2	
N=C1NC(=O)C(CC(=O)Nc2sc3c(c2C(N)=O)CCCC3)S1 (stereo unspecified)	1.1	
CCOC(=O)c1c(NC(=O)CC2SC(=N)NC2=O)sc(Br)c1C (stereo unspecified)	2.6	
CCOC(=O)c1cccc(NC(=O)CC2SC(=N)NC2=O)c1 (stereo unspecified)		fold change (FC) [2]: 1.5
CCOC(=O)c1c(NC(=O)CC2SC(=N)NC2=O)sc2c1CCCC2 (stereo unspecified)	1.6	
CCOC(=O)c1c(NC(=O)CC2SC(=O)NC2=O)sc2c1CCCC2 (stereo unspecified)	1	
CCOC(=O)c1c(NC(=O)CC2SC(=N)NC2=O)sc(C)c1-c1ccccc1 (stereo unspecified)	1.8	
COC(=O)c1c(NC(=O)CC2SC(=N)NC2=O)sc(C)c1C (stereo unspecified)	1.9	Activity [3]: Active; Kd [4]: 0.72 µM; EC50 [5]: 7.2 µM; Activity [6]: Active
CCOC(=O)c1c(NC(=O)CC2SC(=N)NC2=O)sc(-c2ccccc2)c1C (stereo unspecified)	0.8	
COC(=O)c1ccsc1NC(=O)CC1SC(=N)NC1=O (stereo unspecified)	1.2	
CCOC(=O)c1ccccc1NC(=O)CC1SC(=N)NC1=O (stereo unspecified)	1.1	
N=C1NC(=O)C(CC(=O)Nc2ccccc2)S1 (stereo unspecified)		fold change (FC) [2]: 1.1
N=C1NC(=O)C(CC(=O)Nc2cccc(Cl)c2)S1 (stereo unspecified)		fold change (FC) [2]: 1.7
CC/N=C1\NC(=O)C(CC(=O)Nc2sc(C)c(C)c2C(=O)OCC)S1 (stereo unspecified)	1.2	
N=C1NC(=O)C(CC(=O)NCc2cccc(Cl)c2)S1 (stereo unspecified)		fold change (FC) [2]: 1
CCOC(=O)c1c(NC(=O)CC2SC(=N)NC2=O)sc(C)c1C (stereo unspecified)	2.3	Activity (Mus musculus [7]): Active; Activity (Mus musculus [8]): Active
